Test results published in patent US20150125457A1, “BONE REPAIR PROMOTER” (DAIICHI SANKYO COMPANY, LIMITED, priority 2012, published 2015).

Assays:
Format in all cases: in vivo
Sox9 gene = assay: Rat closed femur fracture model, cartilage-related marker gene expression (real-time PCR); conditions: 0.5 mg/kg/day continuous s.c. (osmotic pump) for one week; 7 days after fracture; normalized to ubiquitin C
Experimental: In accordance with the method of Example 2, a rat closed fracture model was prepared. For an animal in a Sham group, a pin only was inserted into the femur, and a bone fracture was not prepared. An administration solution of CNP derivative A was prepared so as to be a dosage corresponding to 0.5 mg/kg/day, and then loaded into an osmotic pump (model 2001, Alzet). The osmotic pump was buried under the skin of the neck back of the animal, and continuous subcutaneous administration was performed for one week. Vehicle was continuously subcutaneously administered to the control group. 7 days after the preparation of the bone fracture, the animal was subjected to isoflurane inhalation anesthesia, retained in a supine position to open the abdomen, and then bled for the euthanasia. The left femur was resected, and immersed into RNAlater (Life Technologies Corporation). The diaphysis or part of the callus was cut out from the femur that had been refrigerated in RNAlater for one day or more. To the cut-out diaphysis or part of the callus, QIAzol (QIAGEN) was added, and the resultant was crushed with tungsten beads. […] The gene expression level was measured by a real-time PCR method using TaqMan Gene Expression Master Mix (Life Technologies Corporation). The measured value was standardized by the gene expression level of ubiquitin-C. […]

type X collagen gene = assay: as above; conditions: 7 days after fracture
Experimental: In accordance with the method of Example 2, a rat closed fracture model was prepared. For an animal in a Sham group, a pin only was inserted into the femur, and a bone fracture was not prepared. An administration solution of CNP derivative A was prepared so as to be a dosage corresponding to 0.5 mg/kg/day, and then loaded into an osmotic pump (model 2001, Alzet). The osmotic pump was buried under the skin of the neck back of the animal, and continuous subcutaneous administration was performed for one week. Vehicle was continuously subcutaneously administered to the control group. 7 days after the preparation of the bone fracture, the animal was subjected to isoflurane inhalation anesthesia, retained in a supine position to open the abdomen, and then bled for the euthanasia. The left femur was resected, and immersed into RNAlater (Life Technologies Corporation). The diaphysis or part of the callus was cut out from the femur that had been refrigerated in RNAlater for one day or more. To the cut-out diaphysis or part of the callus, QIAzol (QIAGEN) was added, and the resultant was crushed with tungsten beads. The total RNA was extracted by an RNeasy Mini Kit (QIAGEN), and 1st strand cDNA was synthesized by a SuperScript VILO cDNA Synthesis Kit (Life Technologies Corporation). The gene expression level was measured by a real-time PCR method using TaqMan Gene Expression Master Mix (Life Technologies Corporation). The measured value was standardized by the gene expression level of ubiquitin-C. The standardization was performed for 12 cases in each group.
(§1) In accordance with the method of Example 2, a rat closed fracture model was prepared. An administration solution was prepared so as to be a dosage corresponding to 0.5 mg/kg/day by using various NPR-B agonists (CNP derivative A, hCNP-53 (SEQ ID NO: 2), CNP derivative C (CNP-36, amino acid Nos. 18 to 53 of SEQ ID NO: 2), and CNP derivative D (Pro-Gly-CNP37, SEQ ID NO: 15)), and then loaded into an osmotic pump (Model 2001, Alzet). The osmotic pump was buried under the skin of the neck back of the animal retained in a supine position, and continuous subcutaneous administration was performed for one week. Vehicle was administered to the control group. 7 days after the preparation of the bone fracture, the animal was subjected to isoflurane inhalation anesthesia, retained in a supine position to open the abdomen, and then subjected to blood collection from the abdominal aorta. EDTA Na was added to the blood, then the EDTA Na-added blood was centrifuged and the plasma separated, and the resultant was cryopreserved. At a later date, the cGMP level in the plasma was measured by a RIA method using a kit (YSI-7702, YAMASA CORPORATION). After blood collection, the animal was bled for the euthanasia, and then the left femur was resected. Each maximum diameter of the sagittal plane and the coronal plane in the callus was measured, and the average value was used as a callus diameter. In accordance with the method of Example 3, the type X collagen gene expression level in the callus was measured. The measurement was performed for 12 cases in each group.

[1] = system: rat closed femur fracture model; assay: Rat closed femur fracture model, torsion test of femur strength; conditions: 4 weeks after fracture
Description: A 10-week-old male Wistar rat (Charles River Laboratories Japan, Inc.) was anesthetized by isoflurane inhalation (inhalation of 5%, and retention of 2%), and retained in a supine position. The peripheral portion of the left knee was shaved with a clipper, and disinfected with Hibitane. About 2 cm of the skin of the left knee on the upside of the patella was incised. About 5 mm of the joint capsule was incised along with the outer edge of the patella, and then the patella was dislocated inward from the trochlear groove. A 22G injection needle was inserted into the medullary cavity in the center of the trochlear groove, and pulled out. Into the hole, a Kirschner wire (MIZUHO Corporation) having a diameter of 1 mm, which had been cut to 32 mm in advance was fully inserted in the medullary cavity of the femur. The joint capsule and the incised part of the skin were sutured with nylon suture (Alfresa Pharma Corporation). The left hind limb was fixed to an Einhorn type of bone fracture preparation device (special order item), and mechanical stress was added to the femur by dropping a weight from a predetermined position to prepare the bone fracture. Soft X-ray images of the hind limb were taken by using CT for animals (LCT-200, Hitachi Aloka Medical, Ltd.), and as a result it was confirmed that transverse fracture was prepared in the vicinity of the center of the femur. For the infection prevention, potassium penicillin G (Meiji Seika Pharma Co., Ltd.) was administered intramuscularly. CNP derivative A was administered subcutaneously once a day at a dose of 0.42 mg/kg/day for 7 days from one day after the surgery. Vehicle was administered to the control group. 4 weeks after the preparation of the bone fracture, the animal was anesthetized by isoflurane inhalation, retained in a supine position, and then bled for the euthanasia. The left and right femurs were resected, immersed in a physiological saline solution, and cryopreserved in a freezer. The femurs were thawed at a later date, subjected to torsion test using a bone strength meter (MZ-500S, MARUTO INSTRUMENT CO., LTD.), and the strength of the femur was measured. The test was performed in 12 cases in each group.

[2] = system: rat closed femur fracture model; assay: Rat closed femur fracture model, callus diameter; conditions: 0.5 mg/kg/day continuous s.c. for one week; 7 days after fracture; versus vehicle group; FIG. 5B
Experimental: as §1

## CNP derivative A: CNP (1-22) Ghrelin (12-28, E17D): SEQ ID NO: 13; SEQ ID NO: 157 of US 2010-305031 (GLSKGCFGLKLDRIGSMSGLGCVQQRKDSKKPPAKLQPR; Chimeric CNP J (SEQ ID NO157) of US2010-305031 and WO2009/142307, and CNP derivative A of current invention.)
Sox9 gene
  Gene expression level of Sox9 in fractured left femur: this high level was maintained
Type X collagen gene; Example 3: 0.5 mg/kg/day continuous s.c. (osmotic pump) for one week, normalized to ubiquitin C
  Gene expression of type X collagen in fractured left femur: significantly suppressed
Type X collagen gene; Example 4: 0.5 mg/kg/day continuous s.c. for one week, versus vehicle group, FIG. 5C
  Gene expression level of type X collagen in the callus: suppressed
[1]; 0.42 mg/kg/day s.c. for 7 days, 12 individuals, vehicle 33%
  Share of individuals whose fractured left femur showed the reference value (3 N×mm/deg) or more: 83%
[1]; 0.42 mg/kg/day s.c. for 7 days, out of 12 individuals
  Number of individuals whose fractured left femur showed the reference value (3 N×mm/deg) or more: 10 individuals
[1]; 0.42 mg/kg/day s.c. for 7 days, versus vehicle
  Healing rate of the fracture: significantly improved
[1]; 0.42 mg/kg/day s.c. once a day for 7 days from one day after surgery, 12 cases
  Strength of the left femur to which bone fracture had been prepared (torsion test stiffness): almost the same as that of the untreated right femur
[2]
  Maximum diameter of the callus generated in the left femur: significantly larger
